Source: patent publication EP0687685A1, “PHYSIOLOGICALLY ACTIVE PEPTIDE” (TEIJIN LIMITED, priority 1993, dated 1994)
pIC50: −log10 of the molar value. Positions of bridges follow the written chain, without caps; N, C: chain ends. Residues, ends and D or L forms follow the SMILES beside them. *: point of attachment. Mob = COc1ccc(C*)cc1

Key:
[1] = molecular target: T1, human type II PLA₂ (Homo sapiens, UniProt P14555); test: Enzyme inhibition of human type II PLA₂ in the presence of heparin, radiolabeled synthetic phospholipid (method of Dole); type: biochemical
T1 construct: made in house; host or cells: Sf9 insect cells, baculovirus (AcNPV), vector pAcTJI1; purified from culture supernatant
T1 sequence (P14555 21-144): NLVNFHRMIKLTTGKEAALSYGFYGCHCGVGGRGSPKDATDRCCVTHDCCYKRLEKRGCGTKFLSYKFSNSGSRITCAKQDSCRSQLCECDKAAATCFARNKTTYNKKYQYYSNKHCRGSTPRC

[2] = molecular target: T1, human type II PLA₂; test: Inhibition of binding between heparin and human II-type PLA₂ (heparin-bound plate, biotinated PLA₂)
Experimental: 500 µg of human type II (non-pancreatic) purified in Reference Example 1 was reacted with 2 ml of a solution of 5 mM sulfosuccinyl 6-(biotinamide hexose) in 0.1M NaHCO₃ at a room temperature for one hour, and the product was purified by a heparin Sepharose column to obtain biotinated human type II PLA₂.
50 µl of a phosphate buffered saline (PBS) containing 50 µg/ml poly-L-lysine was added to each well of a 96-well ELISA plate, and after incubation at room temperature for an hour, each well was twice washed with PBS, 50 µl of PBS solution containing 20 µg/ml heparin was added to each well, and a reaction was further carried out at a room temperature for an hour. Each well was twice washed with PBS, 200 µl of PBS solution containing 30 mg/ml bovine serum albumin (BSA) was added to each well, and after reaction at 37°C for an hour, the plate was stored at 4°C.
To each well of a peparin-bound plate prepared in Reference Example 3, 50 µl of a solution containing a peptide obtained in Examples 1 to 10 was added. After incubating at room temperature for 45 minutes, 50 µg/ml biotinated human II-type PLA₂ obtained in Example 2 was added thereon, and reaction was further carried out at room temperature for an hour. Each well was washed three times with PBS containing 0.05% Tween 20, 50 µl of a 3% BSA/PBS solution containing alkaline phosphatase-conjugated streptoavidin (Taga, ×2000 dilution) was added thereon, and a reaction was carried out at a room temperature for an hour. Each well was washed three times with PBS containing 0.05% Tween 20, 100 µl of a 1 mM p-nitrophenylphosphate/1M ethanolamine aqueous solution (pH 9.8) was added thereon, and a reaction was carried out at room temperature for an hour. Absorption of reaction mixture was measured at 405 nm using a microplate reader (Molecular Device Inc). A result is shown in Fig. 9, and IC₅₀ (µM) was also obtained.

Row | inhibitory activity to type II PLA₂ enzyme ([1]; in the presence of heparin) | inhibition at 1 µg/mL ([1]; peptide 1 µg/ml, heparin 50 µg/ml, PLA₂ enzyme 200 ng/ml) | remaining activity at 1 µg/mL ([1]; peptide 1 µg/ml, heparin 50 µg/ml, PLA₂ enzyme 200 ng/ml, read-out: PLA₂enzyme activity (%)) | inhibition at 5 µg/mL ([1]; peptide 5 µg/ml, heparin 50 µg/ml, PLA₂ enzyme 200 ng/ml) | remaining activity at 5 µg/mL ([1]; peptide 5 µg/ml, heparin 50 µg/ml, PLA₂ enzyme 200 ng/ml, read-out: PLA₂enzyme activity (%)) | inhibition at 10 µg/mL ([1]; peptide 10 µg/ml, heparin 50 µg/ml, PLA₂ enzyme 200 ng/ml) | remaining activity at 10 µg/mL ([1]; peptide 10 µg/ml, heparin 50 µg/ml, PLA₂ enzyme 200 ng/ml, read-out: PLA₂enzyme activity (%)) | inhibition at 50 µg/mL ([1]; peptide 50 µg/ml, heparin 50 µg/ml, PLA₂ enzyme 200 ng/ml) | remaining activity at 50 µg/mL ([1]; peptide 50 µg/ml, heparin 50 µg/ml, PLA₂ enzyme 200 ng/ml, read-out: PLA₂enzyme activity (%)) | inhibition at 100 µg/mL ([1]; peptide 100 µg/ml, heparin 50 µg/ml, PLA₂ enzyme 200 ng/ml) | remaining activity at 100 µg/mL ([1]; peptide 100 µg/ml, heparin 50 µg/ml, PLA₂ enzyme 200 ng/ml, read-out: PLA₂enzyme activity (%)) | inhibitory activity to binding of human type II PLA₂ to heparin [2] | pIC50 [2] | Compound
1 | inhibitory activity | 10% | 90% | 59% | 41% | 72% | 28% | 82% | 18% | 90% | 10% | strong inhibitory activity |  | CC(C)C[C@@H]1NC(=O)[C@H](Cc2ccccc2)NC(=O)[C@H](CCCCN)NC(=O)[C@H]([C@@H](C)O)NC(=O)CNC(=O)[C@@H](NC(=O)CNC(=O)[C@H](CCCNC(=N)N)NC(=O)[C@@H](N)CCCCN)CSSC[C@@H](C(=O)O)NC(=O)[C@H](CO)NC(=O)[C@H](Cc2ccccc2)NC(=O)[C@H](CCCCN)NC(=O)[C@H](Cc2ccc(O)cc2)NC(=O)[C@H](CO)NC1=O [Peptide (20)] (H-KRGCGTKFLSYKFSC-OH; disulfide 4-15 (inferred); N-terminus and C-terminus assumed)
2 |  |  |  |  |  |  |  |  |  |  |  | strong inhibitory activity |  | COc1ccc(CSC[C@H](NC(=O)CNC(=O)[C@H](CCCNC(=N)N)NC(=O)[C@@H](N)CCCCN)C(=O)NCC(=O)N[C@H](C(=O)N[C@@H](CCCCN)C(=O)N[C@@H](Cc2ccccc2)C(=O)N[C@@H](CC(C)C)C(=O)N[C@@H](CO)C(=O)N[C@@H](Cc2ccc(O)cc2)C(=O)N[C@@H](CCCCN)C(=O)N[C@@H](Cc2ccccc2)C(=O)N[C@@H](CO)C(=O)N[C@@H](CS)C(=O)O)[C@@H](C)O)cc1 [Peptide (6)] (H-KRGC(Mob)GTKFLSYKFSC-OH; N-terminus and C-terminus assumed)
3 |  |  |  |  |  |  |  |  |  |  |  |  | 5.85 | COc1ccc(CSC[C@H](NC(=O)CNC(=O)[C@H](CCCNC(=N)N)NC(=O)[C@@H](N)CCCCN)C(=O)NCC(=O)N[C@H](C(=O)N[C@@H](CCCCN)C(=O)N[C@@H](Cc2ccccc2)C(=O)N[C@@H](CC(C)C)C(=O)N[C@@H](CO)C(=O)N[C@@H](Cc2ccc(O)cc2)C(=O)N[C@@H](CCCCN)C(=O)N[C@@H](Cc2ccccc2)C(=O)N[C@@H](CO)C(=O)N[C@@H](CS)C(=O)O)[C@@H](C)O)cc1 [Peptide (1)] (H-KRGC(Mob)GTKFLSYKFSC-OH)
